# In ChEMBL document CHEMBL5113423, “Discovery and preclinical profile of sudapyridine (WX-081), a novel anti-tuberculosis agent” (Bioorg Med Chem Lett, 2022):
# Test system: Mycobacterium tuberculosis variant bovis
# Experiment: Antimycobacterial activity against Mycobacterium bovis ATCC35737 assessed as mycobacterial growth inhibition
# Assay type: functional
compound,measurement,value
COc1ncc(-c2ccccc2)cc1[C@@H](c1ccccc1)[C@@](O)(CCN(C)C)c1cccc2ccccc12,MIC,0.5 µg/mL
